21 molecules from PubChem BioAssay AID256 (DTP/NCI, 2004) can be followed below.

“And” between values parts separate entries of the source, which are not always exact repeats. Equal entries are not always repeated. Toxic doses and inconclusive results are not listed.

For this test, the system named is CD2F1 mice, L1210 leukemia ip, survival T/C. The test is described as follows: NCI In Vivo Anticancer Drug Screen. Data for tumor model L1210 Leukemia (intraperitoneal) in CD2F1 (CDF1) mice. The note with it: higher = longer survival. The gist of the method: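 Transplantable tumor in mice; compound-treated vs vehicle-treated groups. Read-out = treated/control ratio of the measured endpoint.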

[1] abbreviates: endpoint: mean survival time, dose: 100.0 mg/kg/injection, schedule: Q04DX003 (ip), vehicle: saline.
The mark [2] stands for this setting: endpoint: mean survival time, dose: 200.0 mg/kg/injection, schedule: Q04DX003 (ip), vehicle: saline.
The mark [3] stands for this setting: endpoint: mean survival time, dose: 400.0 mg/kg/injection, schedule: Q04DX003 (ip), vehicle: saline.
[4] abbreviates: endpoint: mean survival time, dose: 100.0 mg/kg/injection, schedule: Q01DX009 (ip), vehicle: saline with Tween-80.
Setting [5] is: endpoint: mean survival time, dose: 200.0 mg/kg/injection, schedule: Q01DX009 (ip), vehicle: saline with Tween-80.
The mark [6] stands for this setting: endpoint: mean survival time, dose: 100.0 mg/kg/injection, schedule: Q01DX001 (ip), vehicle: saline.
Where [7] appears, read: endpoint: mean survival time, dose: 200.0 mg/kg/injection, schedule: Q01DX001 (ip), vehicle: saline.

In the case of `COC(=O)/C=C(/Nc1ccccc1C(=O)O)C(=O)OC`, the T/C was 89 % of control under setting [1], 101 % of control under setting [2] and 90 % of control under setting [3].

For the molecule `CC(=O)OCC1OC(OC(C)=O)C(NC(=S)N(C)N=O)C(OC(C)=O)C1OC(C)=O` (stereo not given), the T/C by setting is: (endpoint: mean survival time, dose: 12.5 mg/kg/injection, schedule: Q04DX002 (ip), vehicle: distilled water + Tween-80) 106 % of control; (endpoint: mean survival time, dose: 25.0 mg/kg/injection, schedule: Q04DX002 (ip), vehicle: distilled water + Tween-80) 103 % of control; (endpoint: mean survival time, dose: 50.0 mg/kg/injection, schedule: Q04DX002 (ip), vehicle: distilled water + Tween-80) 113 % of control; (endpoint: mean survival time, dose: 100.0 mg/kg/injection, schedule: Q04DX002 (ip), vehicle: distilled water + Tween-80) 118 % of control and 120 % of control.

`O=C(O)c1cc(F)ccc1Cl`: the T/C was 97 % of control (endpoint: mean survival time, dose: 100.0 mg/kg/injection, schedule: Q04DX002 (ip), vehicle: saline with Tween-80) and 86 % of control (endpoint: mean survival time, dose: 200.0 mg/kg/injection, schedule: Q04DX002 (ip), vehicle: saline with Tween-80).

With `Cc1cc[n+](-c2c3c(nc4ccccc24)-c2ccccc2C(C)(C)C3)cc1`, the T/C (endpoint: mean survival time, dose: 25.0 mg/kg/injection, schedule: Q04DX003 (ip), vehicle: saline sonified) is 96 % of control; the T/C (endpoint: mean survival time, dose: 50.0 mg/kg/injection, schedule: Q04DX003 (ip), vehicle: saline sonified) was 102 % of control; the T/C (endpoint: mean survival time, dose: 100.0 mg/kg/injection, schedule: Q01DX001 (ip), vehicle: saline with Tween-80) is 96 % of control.

`O=C1OC(c2ccccc2)(c2ccccc2)Cc2ccccc21`: the T/C was 98 % of control under setting [4]; 102 % of control under setting [5]; 102 % of control (endpoint: mean survival time, dose: 400.0 mg/kg/injection, schedule: Q01DX009 (ip), vehicle: saline with Tween-80).

In the case of `COc1c(C=O)c2c(c(OC)c1OC)-c1ccc(OC)c(=O)cc1[C@@H](NC(C)=O)CC2`, for the setting “endpoint: median survival time, dose: 12.5 mg/kg/injection, schedule: Q01DX009 (ip), vehicle: Klucel (hydroxypropylcellulose) (HPC)”, the T/C was 100 % of control.

Turning to `CCC[CH2][Sn]1([CH2]CCC)[O]C2C(CO)OC(n3ccc(=O)[nH]c3=O)C2[O]1` (stereo not given), the T/C is 98 % of control (endpoint: mean survival time, dose: 1.56 mg/kg/injection, schedule: Q01DX005 (ip), vehicle: other); 102 % of control (endpoint: mean survival time, dose: 3.13 mg/kg/injection, schedule: Q01DX005 (ip), vehicle: other); 112 % of control (endpoint: mean survival time, dose: 6.25 mg/kg/injection, schedule: Q01DX005 (ip), vehicle: other); 100 % of control (endpoint: mean survival time, dose: 12.5 mg/kg/injection, schedule: Q01DX005 (ip), vehicle: other).

Turning to `CN(C)c1ccn(C2OC(CO)C(O)C2O)c(=O)n1` (stereo not given), the T/C (endpoint: mean survival time, dose: 100.0 mg/kg/injection, schedule: Q01DX005 (ip), vehicle: water) was 107 % of control; the T/C (endpoint: mean survival time, dose: 200.0 mg/kg/injection, schedule: Q01DX005 (ip), vehicle: water) is 103 % of control; the T/C (endpoint: mean survival time, dose: 400.0 mg/kg/injection, schedule: Q01DX005 (ip), vehicle: water) is 115 % of control.

On to `CC1([CH2][Hg][Cl])Cc2ccccc2O1` (stereo not given), for which the T/C runs as follows: (endpoint: mean survival time, dose: 1.56 mg/kg/injection, schedule: Q01DX009 (ip), vehicle: saline with Tween-80) 91 % of control; (endpoint: mean survival time, dose: 3.13 mg/kg/injection, schedule: Q01DX009 (ip), vehicle: saline with Tween-80) 94 % of control; (endpoint: mean survival time, dose: 6.25 mg/kg/injection, schedule: Q01DX009 (ip), vehicle: saline with Tween-80) 101 % of control.

In the case of `CC(C)(O)c1cc(Cl)c(C#N)c(Cl)c1`, the T/C was 109 % of control (endpoint: mean survival time, dose: 37.5 mg/kg/injection, schedule: Q04DX002 (ip), vehicle: saline with Tween-80); 102 % of control (endpoint: mean survival time, dose: 75.0 mg/kg/injection, schedule: Q04DX002 (ip), vehicle: saline with Tween-80); 102 % of control (endpoint: mean survival time, dose: 150.0 mg/kg/injection, schedule: Q04DX002 (ip), vehicle: saline with Tween-80); 93 % of control (endpoint: mean survival time, dose: 300.0 mg/kg/injection, schedule: Q04DX002 (ip), vehicle: saline with Tween-80).

For the molecule `Cc1c(Cl)cccc1NC(=O)c1ccc([N+](=O)[O-])cc1`, the T/C reads like this: (endpoint: mean survival time, dose: 100.0 mg/kg/injection, schedule: Q04DX003 (ip), vehicle: saline with Tween-80) 95 % of control; (endpoint: mean survival time, dose: 200.0 mg/kg/injection, schedule: Q04DX003 (ip), vehicle: saline with Tween-80) 101 % of control; (endpoint: mean survival time, dose: 400.0 mg/kg/injection, schedule: Q04DX003 (ip), vehicle: saline with Tween-80) 86 % of control.

On to `COC(=O)c1nc2ccccc2cc1C#N`, for which the T/C runs as follows: under setting [6], 97 % of control; under setting [7], 96 % of control.

`CC(=O)OC1C(NC(=O)N(CCCl)N=O)C(OC(C)=O)C(OC(C)=O)C(NC(=O)N(CCCl)N=O)C1OC(C)=O` (stereo not given): the T/C is 124 % of control (endpoint: mean survival time, dose: 20.0 mg/kg/injection, schedule: Q01DX001 (ip), vehicle: saline with Tween-80); 164 % of control (endpoint: mean survival time, dose: 60.0 mg/kg/injection, schedule: Q01DX001 (ip), vehicle: saline with Tween-80); 160 % of control (endpoint: mean survival time, dose: 90.0 mg/kg/injection, schedule: Q01DX001 (ip), vehicle: saline with Tween-80); 174 % of control (endpoint: mean survival time, dose: 130.0 mg/kg/injection, schedule: Q01DX001 (ip), vehicle: saline with Tween-80); 168 % of control (endpoint: mean survival time, dose: 200.0 mg/kg/injection, schedule: Q01DX001 (ip), vehicle: saline with Tween-80); 218 % of control (endpoint: mean survival time, dose: 300.0 mg/kg/injection, schedule: Q01DX001 (ip), vehicle: saline with Tween-80).

Consider `C=CC1CN2CCC1CC2C(O)c1ccnc2ccc(OC)cc12` (stereo not given), for which the T/C (endpoint: mean survival time, dose: 18.75 mg/kg/injection, schedule: Q01DX009 (ip), vehicle: saline with Tween-80) was 105 % of control; the T/C (endpoint: mean survival time, dose: 37.5 mg/kg/injection, schedule: Q01DX009 (ip), vehicle: saline with Tween-80) is 101 % of control; the T/C (endpoint: mean survival time, dose: 75.0 mg/kg/injection, schedule: Q01DX009 (ip), vehicle: saline with Tween-80) was 103 % of control.

Take `CC12CCC(O)CC1CCC1C2CCC2(C)C(C3COC(=O)C3)CCC12` (stereo not given): the T/C runs as follows: (endpoint: mean survival time, dose: 50.0 mg/kg/injection, schedule: Q01DX001 (ip), vehicle: saline) 98 % of control; under setting [6], 98 % of control; under setting [7], 96 % of control.

Regarding `COc1ccc(CC(N)C(=O)NC2C(COP(=O)(O)OC3CC(n4cc(C)c(=O)[nH]c4=O)OC3CO)OC(n3cnc4c(N(C)C)ncnc43)C2O)cc1` (stereo not given), the T/C (endpoint: median survival time, dose: 5.63 mg/kg/injection, schedule: Q01DX005 (ip), vehicle: water) is 96 % of control; the T/C (endpoint: median survival time, dose: 11.25 mg/kg/injection, schedule: Q01DX005 (ip), vehicle: water) is 96 % of control; the T/C (endpoint: median survival time, dose: 21.9 mg/kg/injection, schedule: Q01DX005 (ip), vehicle: saline) is 109 % of control; the T/C (endpoint: median survival time, dose: 22.5 mg/kg/injection, schedule: Q01DX005 (ip), vehicle: water) was 94 % of control; the T/C (endpoint: median survival time, dose: 43.8 mg/kg/injection, schedule: Q01DX005 (ip), vehicle: saline) was 106 % of control; the T/C (endpoint: median survival time, dose: 45.0 mg/kg/injection, schedule: Q01DX005 (ip), vehicle: water) was 100 % of control. The T/C (endpoint: median survival time, dose: 87.5 mg/kg/injection, schedule: Q01DX005 (ip), vehicle: saline) is 108 % of control; the T/C (endpoint: median survival time, dose: 90.0 mg/kg/injection, schedule: Q01DX005 (ip), vehicle: water) is 104 % of control; the T/C (endpoint: median survival time, dose: 175.0 mg/kg/injection, schedule: Q01DX005 (ip), vehicle: saline) is 102 % of control.

Take `CC(C)n1cnc2c(=S)nc[nH]c21`: the T/C is 121 % of control (endpoint: mean survival time, dose: 41.0 mg/kg/injection, schedule: Q01DX Z (ip), vehicle: saline) and 171 % of control (endpoint: mean survival time, dose: 94.0 mg/kg/injection, schedule: Q01DX Z (ip), vehicle: saline).

As for `Cc1cccc(NNC(=S)Nc2ccccc2)c1`, the T/C runs as follows: under setting [1], 94 % of control; under setting [2], 100 % of control; under setting [3], 100 % of control.

As to `O=C(O)c1ccc([As](=O)(O)O)cc1[N+](=O)[O-]`, the T/C was 105 % of control (endpoint: mean survival time, dose: 50.0 mg/kg/injection, schedule: Q04DX003 (ip), vehicle: saline); 97 % of control under setting [1]; 95 % of control under setting [2].

Consider `O=c1[nH]cnc2c1ncn2C1OC(CO)C(O)C1O.O=c1[nH]cnc2c1ncn2C1OC(CO)C(O)C1O.[NH2-].[NH2-].[Pt+2]` (stereo not given), for which the T/C runs as follows: (endpoint: mean survival time, dose: 12.5 mg/kg/injection, schedule: Q01DX009 (ip), vehicle: saline with Tween-80) 92 % of control; (endpoint: mean survival time, dose: 25.0 mg/kg/injection, schedule: Q01DX009 (ip), vehicle: saline with Tween-80) 96 % of control; (endpoint: mean survival time, dose: 50.0 mg/kg/injection, schedule: Q01DX009 (ip), vehicle: saline with Tween-80) 100 % of control; under setting [4], 92 % of control; under setting [5], 103 % of control.

For `COc1ccc2c(c1O)CNCC2c1ccc(O)c(C)c1` (stereo not given), the T/C (endpoint: mean survival time, dose: 75.0 mg/kg/injection, schedule: Q01DX001 (ip), vehicle: saline) was 98 % of control.
